Test results taken from patent publication US20180155344A1, “TRICYCLIC PIPERIDINE COMPOUNDS” (ACTELION PHARMACEUTICALS LTD, priority 2015, published 2018).

Biological target: T1, human TPH1 (Homo sapiens, UniProt P17752)
T1 sequence (P17752 1-444): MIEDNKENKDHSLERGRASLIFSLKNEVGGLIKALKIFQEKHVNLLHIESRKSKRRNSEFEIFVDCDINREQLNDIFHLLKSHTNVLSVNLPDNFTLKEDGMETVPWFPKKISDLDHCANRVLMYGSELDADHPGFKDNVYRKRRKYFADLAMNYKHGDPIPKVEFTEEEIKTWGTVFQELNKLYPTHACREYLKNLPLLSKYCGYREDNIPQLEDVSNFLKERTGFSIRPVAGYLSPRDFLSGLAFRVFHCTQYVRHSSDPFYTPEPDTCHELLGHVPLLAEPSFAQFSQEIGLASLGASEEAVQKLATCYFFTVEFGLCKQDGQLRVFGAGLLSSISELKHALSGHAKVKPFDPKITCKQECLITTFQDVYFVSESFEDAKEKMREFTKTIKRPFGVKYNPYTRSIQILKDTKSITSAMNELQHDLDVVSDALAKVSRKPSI
Assay: biochemical
How it was run: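 Inhibition is derived from 5-hydroxy-L-tryptophan fluorescence (540 nm emission, 300 nm excitation) after perchloric acid stop, relative to DMSO vehicle. Recombinant full-length human enzyme (40-80 nM) reacts with 40 μM tryptophan plus 100 μM methyltetrahydropterin, pH 7.6 Tris/DTT/catalase, 15° C, 60 min.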

| Structure (SMILES) | IC50 [nM] |
| --- | --- |
| Cc1ccc(C2c3c(nc4cc(C(F)(F)F)ccn34)CCN2C(=O)COc2ccc(CN3CCOCC3)cc2Cl)cc1 (centres unmarked) [Example 3.23.2, 2-(2-chloro-4-(morpholinomethyl)phenoxy)-1-(1-(p-tolyl)-7-(trifluoromethyl)-3,4-dihydroimidazo[1,2-a:5,4-c′]dipyridin-2(1H)-yl)ethan-1-one] | 32 |
| COc1ccc(C2c3c(nc4cc(C(F)(F)F)ccn34)CCN2C(=O)COc2ccc3ccccc3c2)cc1 (centres unmarked) [Example 3.24.1, 1-(1-(4-methoxyphenyl)-7-(trifluoromethyl)-3,4-dihydroimidazo[1,2-a:5,4-c′]dipyridin-2(1H)-yl)-2-(naphthalen-2-yloxy)ethan-1-one] | 44 |
| COc1ccc(C2c3c(nc4cc(C(F)(F)F)ccn34)CCN2C(=O)COc2cccnc2Cl)cc1 (centres unmarked) [Example 3.24.2, 2-((2-chloropyridin-3-yl)oxy)-1-(1-(4-methoxyphenyl)-7-(trifluoromethyl)-3,4-dihydroimidazo[1,2-a:5,4-c′]dipyridin-2(1H)-yl)ethan-1-one] | 429 |
| CCOc1ccc(C2c3c(nc4cc(C(F)(F)F)ccn34)CCN2C(=O)COc2ccc3ccccc3c2)cc1 (centres unmarked) [Example 3.25.1, 1-(1-(4-ethoxyphenyl)-7-(trifluoromethyl)-3,4-dihydroimidazo[1,2-a:5,4-c′]dipyridin-2(1H)-yl)-2-(naphthalen-2-yloxy)ethan-1-one] | 104 |
| CCOc1ccc(C2c3c(nc4cc(C(F)(F)F)ccn34)CCN2C(=O)COc2ccc(CN3CCOCC3)cc2Cl)cc1 (centres unmarked) [Example 3.25.2, 2-(2-chloro-4-(morpholinomethyl)phenoxy)-1-(1-(4-ethoxyphenyl)-7-(trifluoromethyl)-3,4-dihydroimidazo[1,2-a:5,4-c′]dipyridin-2(1H)-yl)ethan-1-one] | 20 |
| CCOc1ccc(C2c3c(nc4cc(C(F)(F)F)ccn34)CCN2C(=O)COc2ccc(CN3CCOCC3)c(C)c2C)cc1 (centres unmarked) [Example 3.25.3, 2-(2,3-dimethyl-4-(morpholinomethyl)phenoxy)-1-(1-(4-ethoxyphenyl)-7-(trifluoromethyl)-3,4-dihydroimidazo[1,2-a:5,4-c′]dipyridin-2(1H)-yl)ethan-1-one] | 51 |
| O=C(COc1ccc2ccccc2c1)N1CCc2nc3cc(C(F)(F)F)ccn3c2C1c1ccc(OC(F)F)cc1 (centres unmarked) [Example 3.26.1, 1-(1-(4-(difluoromethoxy)phenyl)-7-(trifluoromethyl)-3,4-dihydroimidazo[1,2-a:5,4-c′]dipyridin-2(1H)-yl)-2-(naphthalen-2-yloxy)ethan-1-one] | 120 |
| O=C(COc1ccc(CN2CCOCC2)cc1Cl)N1CCc2nc3cc(C(F)(F)F)ccn3c2C1c1ccc(OC(F)F)cc1 (centres unmarked) [Example 3.26.2, 2-(2-chloro-4-(morpholinomethyl)phenoxy)-1-(1-(4-(difluoromethoxy)phenyl)-7-(trifluoromethyl)-3,4-dihydroimidazo[1,2-a:5,4-c′]dipyridin-2(1H)-yl)ethan-1-one] | 54 |
| O=C(COc1ccc(CN2CCOCC2)cc1Cl)N1CCc2nc3cc(C(F)(F)F)ccn3c2C1c1ccc(OC(F)(F)F)cc1 (centres unmarked) [Example 3.27.1, 2-(2-chloro-4-(morpholinomethyl)phenoxy)-1-(1-(4-(trifluoromethoxy)phenyl)-7-(trifluoromethyl)-3,4-dihydroimidazo[1,2-a:5,4-c′]dipyridin-2(1H)-yl)ethan-1-one] | 135 |
| O=C(COc1ccc2ccccc2c1)N1CCc2nc3cc(C(F)(F)F)ccn3c2C1c1ccc(C(F)(F)F)cc1 (centres unmarked) [Example 3.28.1, 2-(naphthalen-2-yloxy)-1-(7-(trifluoromethyl)-1-(4-(trifluoromethyl)phenyl)-3,4-dihydroimidazo[1,2-a:5,4-c′]dipyridin-2(1H)-yl)ethan-1-one] | 154 |
| O=C(COc1ccc(CN2CCOCC2)cc1Cl)N1CCc2nc3cc(C(F)(F)F)ccn3c2C1c1ccc(C(F)(F)F)cc1 (centres unmarked) [Example 3.28.2, 2-(2-chloro-4-(morpholinomethyl)phenoxy)-1-(7-(trifluoromethyl)-1-(4-(trifluoromethyl)phenyl)-3,4-dihydroimidazo[1,2-a:5,4-c′]dipyridin-2(1H)-yl)ethan-1-one] | 77 |
| O=C(COc1ccc2ccccc2c1)N1CCc2nc3cc(C(F)(F)F)ccn3c2C1c1ccc(F)cc1 (centres unmarked) [Example 3.29.1, 1-(1-(4-fluorophenyl)-7-(trifluoromethyl)-3,4-dihydroimidazo[1,2-a:5,4-c′]dipyridin-2(1H)-yl)-2-(naphthalen-2-yloxy)ethan-1-one] | 312 |
| O=C(COc1ccc(CN2CCOCC2)cc1Cl)N1CCc2nc3cc(C(F)(F)F)ccn3c2C1c1ccc(F)cc1 (centres unmarked) [Example 3.29.2, 2-(2-chloro-4-(morpholinomethyl)phenoxy)-1-(1-(4-fluorophenyl)-7-(trifluoromethyl)-3,4-dihydroimidazo[1,2-a:5,4-c′]dipyridin-2(1H)-yl)ethan-1-one] | 202 |
| O=C(COc1ccc2ccccc2c1)N1CCc2nc3cc(C(F)(F)F)ccn3c2C1c1ccc(Cl)cc1 (centres unmarked) [Example 3.30.1, 1-(1-(4-chlorophenyl)-7-(trifluoromethyl)-3,4-dihydroimidazo[1,2-a:5,4-c′]dipyridin-2(1H)-yl)-2-(naphthalen-2-yloxy)ethan-1-one] | 59 |
| O=C(COc1ccc(CN2CCOCC2)cc1Cl)N1CCc2nc3cc(C(F)(F)F)ccn3c2C1c1ccc(Cl)cc1 (centres unmarked) [Example 3.30.2, 2-(2-chloro-4-(morpholinomethyl)phenoxy)-1-(1-(4-chlorophenyl)-7-(trifluoromethyl)-3,4-dihydroimidazo[1,2-a:5,4-c′]dipyridin-2(1H)-yl)ethan-1-one] | 20 |
| COc1cccc(C2c3c(nc4cc(C(F)(F)F)ccn34)CCN2C(=O)COc2ccc3ccccc3c2)c1 (centres unmarked) [Example 3.32.1, 1-(1-(3-methoxyphenyl)-7-(trifluoromethyl)-3,4-dihydroimidazo[1,2-a:5,4-c′]dipyridin-2(1H)-yl)-2-(naphthalen-2-yloxy)ethan-1-one] | 228 |
| Cc1cc(C2c3c(nc4cc(C(F)(F)F)ccn34)CCN2C(=O)COc2ccc3ccccc3c2)ccc1F (centres unmarked) [Example 3.33.1, 1-(1-(4-fluoro-3-methylphenyl)-7-(trifluoromethyl)-3,4-dihydroimidazo[1,2-a:5,4-c′]dipyridin-2(1H)-yl)-2-(naphthalen-2-yloxy)ethan-1-one] | 127 |
| Cc1cc(C2c3c(nc4cc(C(F)(F)F)ccn34)CCN2C(=O)COc2ccc(CN3CCOCC3)cc2Cl)ccc1F (centres unmarked) [Example 3.33.2, 2-(2-chloro-4-(morpholinomethyl)phenoxy)-1-(1-(4-fluoro-3-methylphenyl)-7-(trifluoromethyl)-3,4-dihydroimidazo[1,2-a:5,4-c′]dipyridin-2(1H)-yl)ethan-1-one] | 110 |
| O=C(COc1ccc2ccccc2c1)N1CCc2nc3cc(C(F)(F)F)ccn3c2C1c1ccc(F)c(F)c1 (centres unmarked) [Example 3.34.1, 1-(1-(3,4-difluorophenyl)-7-(trifluoromethyl)-3,4-dihydroimidazo[1,2-a:5,4-c′]dipyridin-2(1H)-yl)-2-(naphthalen-2-yloxy)ethan-1-one] | 486 |
| O=C(COc1ccc(CN2CCOCC2)cc1Cl)N1CCc2nc3cc(C(F)(F)F)ccn3c2C1c1ccc(F)c(F)c1 (centres unmarked) [Example 3.34.2, 2-(2-chloro-4-(morpholinomethyl)phenoxy)-1-(1-(3,4-difluorophenyl)-7-(trifluoromethyl)-3,4-dihydroimidazo[1,2-a:5,4-c′]dipyridin-2(1H)-yl)ethan-1-one] | 242 |
